In patent US5602168A, “1-(N'-(arylalkylaminoalkyl)) aminoisoindoles; dopamine receptor subtype specific ligands” (Neurogen Corporation, priority 1995, dated 1997):
Like-named read-outs stand apart in the source and are kept apart here.

Legend:
D1 dopamine receptor = details: background statement; cited from earlier work
D2 receptors = details: background statement; cited from earlier work
[1] = cited from earlier work
[2] = target: T1, human dopamine D4 receptor (Homo sapiens, UniProt P21917); assay: D4 receptor binding activity ([3H]YM-09151-2 displacement); details: human D4 clonal cell lines; 0.1 nM [3H]YM-09151-2; 60 minutes at 25° C.; pH 7.4
T1 construct: expressed in transfected cells
T1 sequence (P21917 1-419): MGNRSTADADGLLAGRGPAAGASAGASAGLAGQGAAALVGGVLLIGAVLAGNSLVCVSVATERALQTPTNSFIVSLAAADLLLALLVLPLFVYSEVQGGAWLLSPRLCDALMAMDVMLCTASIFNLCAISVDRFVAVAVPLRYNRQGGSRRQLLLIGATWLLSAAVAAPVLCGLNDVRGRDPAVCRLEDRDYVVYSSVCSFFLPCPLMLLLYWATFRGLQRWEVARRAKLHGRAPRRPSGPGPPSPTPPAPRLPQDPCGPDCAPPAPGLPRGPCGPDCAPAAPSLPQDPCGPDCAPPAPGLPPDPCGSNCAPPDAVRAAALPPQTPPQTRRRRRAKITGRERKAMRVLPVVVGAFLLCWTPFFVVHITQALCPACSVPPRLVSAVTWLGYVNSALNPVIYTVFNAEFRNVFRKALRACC
Protocol: Clonal cell lines expressing the human dopamine D4 receptor subtype were harvested in PBS and the cells centrifuged and the pellets stored at -80° C. until used in the binding assay. The pellets were resuspended and the cells lysed at 4° C. in 50 mM Tris pH 7.4 buffer containing 120 mM NaCl, 1 mM EDTA and 5 mM MgCl2. The homogenate is centrifuged at 48000×g for 10 minutes at 4° C. The resulting pellet is resuspended in fresh buffer and centrifuged again. After resuspension of the pellet in fresh buffer a […] aliquot is removed for protein determination. The remaining homogenate is centrifuged as above, the supernatant removed and the pellet stored at 4° C. until needed at which time it is resuspended to a final concentration of […] with 50 mM Tris buffer (pH 7.4) and 120 mM NaCl just prior to use. Incubations were carried out for 60 minutes at 25° C. in the presence of 0.1 nM [^3 H]YM-09151-2. The incubation was terminated by rapid filtration through Whatman GF/C filters and rinsed with 2×4 ml washes of chilled 50 mM Tris (pH 7.4) and 120 mM NaCl. Non-specific binding was determined with 1 mM spiperone and radioactivity determined by counting in an LKB beta counter. Binding parameters were determined by non-linear least squares regression analysis, from which the inhibition constant Ki could be calculated for each test compound. The binding characteristics of some examples of this invention are shown in Table 3 for the dopamine D4 binding assay.

D3 receptor = target: T2, D3 receptor (Chlorocebus aethiops, UniProt P52703); assay: D3 receptor binding activity ([3H]-YM 09151-2 displacement); set-up: species or system African Green monkey; details: COS cell pellets with recombinant D3; 0.5 nM 3H-YM 09151-2; nonspecific 1 mM spiperone
T2 construct: expressed in transfected cells; host or cells: COS cells (membrane homogenate)
Protocol: (§1) Pellets of COS cells containing recombinantly produced D2 or D3 receptors from African Green monkey were used for the assays. The sample is homogenized in 100 volumes (w/vol) of 0.05M Tris HCl buffer at 4° C. and pH 7.4. The sample is then centrifuged at 30,000×g and resuspended and rehomogenized. The sample is then centrifuged as described and the final tissue sample is frozen until use. The tissue is resuspended 1:20 (wt/vol) in 0.05M Tris HCl buffer containing 100 mM NaCl.
(§2) Incubations are carried out at […] and contain 0.4 ml of tissue sample, 0.5 nM ^3 H-YM 09151-2 and the compound of interest in a total incubation of 1.0 ml. Nonspecific binding is defined as that binding found in the presence of 1 mM spiperone; without further additions, nonspecific binding is less than 20% of total binding. The binding characteristics of examples of this patent for the D2 and D3 receptor subtypes are shown in Table 2 for Rat Striatal Homogenates.

D2 receptor = D2 receptor (Chlorocebus aethiops, UniProt P52702); assay: D2 receptor binding activity ([3H]-YM 09151-2 displacement); set-up: species or system African Green monkey; details: COS cell pellets with recombinant D2; 0.5 nM 3H-YM 09151-2; nonspecific 1 mM spiperone
Protocol: as §1, §2

T2 sequence (P52703 whole entry): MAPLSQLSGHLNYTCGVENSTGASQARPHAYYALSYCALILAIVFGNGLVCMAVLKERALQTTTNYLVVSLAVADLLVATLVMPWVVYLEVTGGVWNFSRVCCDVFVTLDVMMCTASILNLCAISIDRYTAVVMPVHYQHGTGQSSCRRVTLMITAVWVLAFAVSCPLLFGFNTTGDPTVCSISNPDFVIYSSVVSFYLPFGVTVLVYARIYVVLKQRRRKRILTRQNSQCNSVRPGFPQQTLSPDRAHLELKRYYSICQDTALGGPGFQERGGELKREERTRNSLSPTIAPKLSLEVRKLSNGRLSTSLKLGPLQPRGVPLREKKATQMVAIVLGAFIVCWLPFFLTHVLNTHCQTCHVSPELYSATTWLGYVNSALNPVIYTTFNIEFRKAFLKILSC
D2 receptor, sequence (P52702 whole entry): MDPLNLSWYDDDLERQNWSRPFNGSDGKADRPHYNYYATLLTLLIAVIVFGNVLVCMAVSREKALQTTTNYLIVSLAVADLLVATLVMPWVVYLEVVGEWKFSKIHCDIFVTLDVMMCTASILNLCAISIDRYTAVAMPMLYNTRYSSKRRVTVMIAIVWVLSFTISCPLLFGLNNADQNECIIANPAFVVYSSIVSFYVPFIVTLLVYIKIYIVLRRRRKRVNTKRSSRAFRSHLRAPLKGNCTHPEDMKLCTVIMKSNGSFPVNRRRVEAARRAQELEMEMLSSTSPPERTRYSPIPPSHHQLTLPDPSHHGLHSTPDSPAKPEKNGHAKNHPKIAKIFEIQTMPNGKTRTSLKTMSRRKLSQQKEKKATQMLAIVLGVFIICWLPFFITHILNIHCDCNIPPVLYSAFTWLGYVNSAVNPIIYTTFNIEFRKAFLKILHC

SMILES	Ki [2]	Ki (D3 receptor)	Ki (D2 receptor)	other results
O=C(CCCN1CCC(O)(c2ccc(Cl)cc2)CC1)c1ccc(F)cc1 [haloperidol]				binding at D1 dopamine receptor (D1 dopamine receptor): binds relatively weakly; binding affinity at D2 receptors (D2 receptors): in the subnanomolar range
CN1CCN(C2=Nc3cc(Cl)ccc3Nc3ccccc32)CC1 [clozapine]				incidence of extrapyramidal side effects (EPS) ([1]; versus classical neuroleptics, background statement): lesser incidence of extrapyramidal side effects (EPS) than classical neuroleptics
CCN1CCCC1CNC(=O)c1cc(S(N)(=O)=O)ccc1OC (stereo not shown) [sulpiride]				incidence of extrapyramidal side effects (EPS) ([1]; in vivo): lesser incidence of extrapyramidal side effects (EPS) than classical neuroleptics

Now from value to compound, other results behind:

Ki [2]	Ki (D3 receptor)	Ki (D2 receptor)	SMILES	other results
12 nM	> 100000 nM	2380 nM	c1cnc(N2CCN(CCNC3=NCc4ccccc43)CC2)nc1 [Compound 1]	
100 nM	> 100000 nM	1940 nM	CN(CCCc1ccccc1)CCNC1=NCc2ccccc21 [Compound 3, 1-(N-[2-{N'-(3-phenylpropyl)-N'-methyl}aminoethyl])aminoisoindole dioxolate]	
70 nM	> 100000 nM	1420 nM	c1cnc(N2CCN(CCCNC3=NCc4ccccc43)CC2)nc1 [Compound 2]	
